Consider 25 compounds from patent publication US20240092784A1, “CONDENSED HETEROCYCLIC COMPOUND” (NISSAN CHEMICAL CORPORATION, priority 2020, published 2024).

Structures can show the parent of a compound that is named as a salt.

human SPR, sequence (P35270 whole entry): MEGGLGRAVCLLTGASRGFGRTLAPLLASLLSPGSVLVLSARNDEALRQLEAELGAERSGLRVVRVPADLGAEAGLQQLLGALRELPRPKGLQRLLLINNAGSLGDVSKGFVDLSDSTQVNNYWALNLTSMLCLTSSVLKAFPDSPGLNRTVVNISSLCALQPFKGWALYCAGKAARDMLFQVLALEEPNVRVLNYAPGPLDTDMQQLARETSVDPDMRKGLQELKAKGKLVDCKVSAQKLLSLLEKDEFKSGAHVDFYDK

The first test deals with human SPR (Homo sapiens (Human), UniProt P35270). Briefly: Evaluation Example 2: Measurement of human SPR inhibitory activity (seven concentrations, sepiapterin absorbance at 420 nm). To be noted: Evaluation Example 2, seven concentrations 0.14 nM to 100 nM, 240 minutes at room temperature, read-out: IC50. It counts as biochemical. The procedure, abridged:
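Reactions ran 240 min at room temperature in 100 mM Tris-HCl pH 7.5 with 0.01% BSA. They contained tag-cleaved, E. coli-expressed full-length human SPR (diluted to 150 ng/mL), seven compound concentrations from 0.14 to 100 nM, and sepiapterin/NADPH added as a 120 μM/160 μM solution. Inhibition was calculated from sepiapterin absorbance at 420 nm.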
For `CC(C)Cn1c(=O)c(C(=O)NC2CC2)c(O)n2ncc(/C=C/C(=O)N3CCOC[C@H]3C)c12` [compound 494, (R,E)-N-Cyclopropyl-7-hydroxy-4-isobutyl-3-(3-(3-methylmorpholino)-3-oxoprop-1-en-1-yl)-5-oxo-4,5-dihydropyrazolo[1,5-a]pyrimidine-6-carboxamide], the IC50 was found to be 730 pM.
On the same count and under the same terms, the value for `CC(C)Cn1c(=O)c(C(=O)NC2CC2)c(O)n2ncc(C(=O)N(C)Cc3cccnc3)c12` [Synthesis Example 230, N6-Cyclopropyl-7-hydroxy-4-isobutyl-N3-methyl-5-oxo-N3-(pyridin-3-ylmethyl) 4,5-dihydropyrazolo[1,5-a]pyrimidine-3,6-dicarboxamide] was 930 pM; that for `Cc1nn2c(O)c(C(=O)NC3CC3)c(=O)n(CC(C)C)c2c1/C=C/C(=O)N1CCC[C@H]1c1cccnc1` [Synthesis Example 633, (S,E)-N-Cyclopropyl-7-hydroxy-4-isobutyl-2-methyl-5-oxo-3-(3-oxo-3-(2-(pyridin-3-yl)pyrrolidin-1-yl)prop-1-en-1-yl)-4,5-dihydropyrazolo[1,5-a]pyrimidine-6-carboxamide] was 910 pM; that for `Cc1cc(Nc2cc3n(CC(C)(C)C)c(=O)c(C(=O)NC4CC4)c(O)n3n2)ncn1` [Synthesis Example 339, N-Cyclopropyl-7-hydroxy-2-((6-methylpyrimidin-4-yl)amino)-4-neopentyl-5-oxo-4,5-dihydropyrazolo[1,5-a]pyrimidine-6-carboxamide] was 4570 pM.
The same measure, in the same setting: the value for `CC(C)Cn1c(=O)c(C(=O)NC2CCC2)c(O)n2ncc(/C=C/C(=O)N3CCOCC3)c12` [compound 527, (E)-N-Cyclobutyl-7-hydroxy-4-isobutyl-3-(3-morpholino-3-oxoprop-1-en-1-yl)-5-oxo-4,5-dihydropyrazolo[1,5-a]pyrimidine-6-carboxamide] was 740 pM; that for `CC(C)Cn1c(=O)c(C(=O)NC2CC2)c(O)n2ncc(/C=C/c3ccc(C(F)(F)F)nc3)c12` [Synthesis Example 248, (E)-N-Cyclopropyl-7-hydroxy-4-isobutyl-5-oxo-3-(2-(6-(trifluoromethyl)pyridine-3-yl)vinyl)-4,5-dihydropyrazolo[1,5-a]pyrimidine-6-carboxamide] was 1890 pM.
On to `CC(C)Cn1c(=O)c(C(=O)NC2CC2)c(O)n2ncc(C(=O)Nc3ccccn3)c12` [Synthesis Example 225, N6-Cyclopropyl-7-hydroxy-4-isobutyl-5-oxo-N3-(pyridin-2-yl)-4,5-dihydropyrazolo[1,5-a]pyrimidine-3,6-dicarboxamide], for which the IC50 stood at 1840 pM.
Same read-out and setting: the same measure for `Cc1nn2c(O)c(C(=O)NC3CC3)c(=O)n(CC(C)C)c2c1/C=C/C(=O)N1CCN(C2CC(F)(F)C2)CC1` [Synthesis Example 615, (E)-N-Cyclopropyl-3-(3-(4-(3,3-difluorocyclobutyl)piperazin-1-yl)-3-oxoprop-1-en-1-yl)-7-hydroxy-4-isobutyl-2-methyl-5-oxo-4,5-dihydropyrazolo[1,5-a]pyrimidine-6-carboxamide]: 1400 pM; for `CCc1nn2c(O)c(C(=O)NC3CC3)c(=O)n(CC(C)C)c2c1/C=C/C(=O)N1[C@@H](C)COC[C@@H]1C` [Synthesis Example 626, N-Cyclopropyl-3-((E)-3-((3S,5S)-3,5-dimethylmorpholino)-3-oxoprop-1-en-1-yl)-2-ethyl-7-hydroxy-4-isobutyl-5-oxo-4,5-dihydropyrazolo[1,5-a]pyrimidine-6-carboxamide]: 870 pM.
Take `Cc1nn2c(O)c(C(=O)NC3CC3)c(=O)n(CC(C)(C)C)c2c1/C=C/C1CCOCC1` [compound 584, (E)-N-Cyclopropyl-7-hydroxy-2-methyl-4-neopentyl-5-oxo-3-(2-(tetrahydro-2H-pyran-4-yl)vinyl)-4,5-dihydropyrazolo[1,5-a]pyrimidine-6-carboxamide]: the IC50 came to 1200 pM.
Same read-out and setting: the same measure for `Cc1cc(CNC(=O)c2cnn3c(O)c(C(=O)NC4CC4)c(=O)n(CC(C)C)c23)n(C)n1` [Synthesis Example 229, N6-Cyclopropyl-N3-((1,3-dimethyl-1H-pyrazol-5-yl)methyl)-7-hydroxy-4-isobutyl-5-oxo-4,5-dihydropyrazolo[1,5-a]pyrimidine-3,6-dicarboxamide]: 850 pM.
The same measure, in the same setting: the same measure for `Cc1nn2c(O)c(C(=O)NC3CC3)c(=O)n(CC(C)C)c2c1/C=C/C(=O)N1CCOC[C@@H]1c1ccccc1` [Synthesis Example 643, (S,E)-N-Cyclopropyl-7-hydroxy-4-isobutyl-2-methyl-5-oxo-3-(3-oxo-3-(3-phenylmorpholino)prop-1-en-1-yl)-4,5-dihydropyrazolo[1,5-a]pyrimidine-6-carboxamide]: 1370 pM.
As for `CNc1nn2c(O)c(C(=O)NC3CC3)c(=O)n(CC(C)C)c2c1/C=C/C(=O)N1[C@@H](C)COC[C@@H]1C` [Synthesis Example 432, N-Cyclopropyl-3-((E)-3-((3S,5S)-3,5-dimethylmorpholino)-3-oxoprop-1-en-1-yl)-7-hydroxy-4-isobutyl-2-(methylamino)-5-oxo-4,5-dihydropyrazolo[1,5-a]pyrimidine-6-carboxamide], the IC50 came to 660 pM.
Still for that read-out and setting: the value for `CC(C)Cn1c(=O)c(C(=O)NC2CC2)c(O)n2ncc(/C=C/C(=O)N3CCC(=O)C3)c12` [compound 516, (E)-N-Cyclopropyl-7-hydroxy-4-isobutyl-5-oxo-3-(3-oxo-3-(3-oxopyrrolidin-1-yl)prop-1-en-1-yl)-4,5-dihydropyrazolo[1,5-a]pyrimidine-6-carboxamide] was 610 pM.
The same measure, in the same setting: the value for `COc1ccncc1-c1cc2n(CC(C)(C)C)c(=O)c(C(=O)NC3CC3)c(O)n2n1` [Synthesis Example 282, N-Cyclopropyl-7-hydroxy-2-(4-methoxypyridine-3-yl)-4-neopentyl-5-oxo-4,5-dihydropyrazolo[1,5-a]pyrimidine-6-carboxamide] was 4730 pM; that for `CC1(Cn2c(=O)c(C(=O)NC3CC3)c(O)n3nc(N)c(/C=C/C4CCOCC4)c23)CCOCC1` [Synthesis Example 445, (E)-2-Amino-N-cyclopropyl-7-hydroxy-4-((4-methyltetrahydro-2H-pyran-4-yl)methyl)-5-oxo-3-(2-(tetrahydro-2H-pyran-4-yl)vinyl)-4,5-dihydropyrazolo[1,5-a]pyrimidine-6-carboxamide hydrochloride] was 660 pM; that for `CC(C)Cn1c(=O)c(C(=O)NC2CC2)c(O)n2ncc(/C=C/C(=O)N3CCC(F)(F)CC3C)c12` (racemic) [compound 546, (E)-N-Cyclopropyl-3-(3-(4,4-difluoro-2-methylpiperidin-1-yl)-3-oxoprop-1-en-1-yl)-7-hydroxy-4-isobutyl-5-oxo-4,5-dihydropyrazolo[1,5-a]pyrimidine-6-carboxamide (racemate)] was 770 pM.
As for `CC(C)Cn1c(=O)c(C(=O)NC2CC2)c(O)n2ncc(/C=C/C(=O)N3CCC[C@@H]3C(N)=O)c12` [compound 487, (R,E)-3-(3-(2-Carbamoylpyrrolidin-1-yl)-3-oxoprop-1-en-1-yl)-N-cyclopropyl-7-hydroxy-4-isobutyl-5-oxo-4,5-dihydropyrazolo[1,5-a]pyrimidine-6-carboxamide], the IC50 was 970 pM.
On the same count and under the same terms, the value for `CC(C)Cn1c(=O)c(C(=O)NC2CC2)c(O)n2ncc(/C=C/C(=O)N(C)C(C)C)c12` [compound 503, (E)-N-Cyclopropyl-7-hydroxy-4-isobutyl-3-(3-(isopropyl(methyl)amino)-3-oxoprop-1-en-1-yl)-5-oxo-4,5-dihydropyrazolo[1,5-a]pyrimidine-6-carboxamide] was 800 pM.
On the same count and under the same terms, the same measure for `Cc1nn2c(O)c(C(=O)NC3CC3)c(=O)n(CC(C)C)c2c1/C=C/C(=O)N1CCC[C@@H]1C` [compound 580, (S,E)-N-Cyclopropyl-7-hydroxy-4-isobutyl-2-methyl-3-(3-(2-methylpyrrolidin-1-yl)-3-oxoprop-1-en-1-yl)-5-oxo-4,5-dihydropyrazolo[1,5-a]pyrimidine-6-carboxamide]: 960 pM.
The same measure, in the same setting: the value for `CC(C)(C)Cn1c(=O)c(C(=O)NCC(F)(F)F)c(O)n2nc(Nc3cnccn3)cc12` [Synthesis Example 347, 7-Hydroxy-4-neopentyl-5-oxo-2-(pyrazin-2-ylamino)-N-(2,2,2-trifluoroethyl)-4,5-dihydropyrazolo[1,5-a]pyrimidine-6-carboxamide] was 1870 pM.
Take `CC(C)Cn1c(=O)c(C(=O)NC2CC2)c(O)n2ncc(/C=C/C3CCOCC3)c12` [Synthesis Example 237, (E)-N-Cyclopropyl-7-hydroxy-4-isobutyl-5-oxo-3-(2-(tetrahydro-2H-pyran-4-yl)vinyl)-4,5-dihydropyrazolo[1,5-a]pyrimidine-6-carboxamide]: the IC50 came out at 910 pM.
Still for that read-out and setting: the same measure for `CC(C)Cn1c(=O)c(C(=O)NC2CC2)c(O)n2ncc(C(=O)NCc3ccc(C(F)(F)F)nc3)c12` [Synthesis Example 226, N6-Cyclopropyl-7-hydroxy-4-isobutyl-5-oxo-N3-((6-(trifluoromethyl)pyridin-3-yl)methyl)-4,5-dihydropyrazolo[1,5-a]pyrimidine-3,6-dicarboxamide]: 1070 pM; for `CC(C)Cn1c(=O)c(C(=O)NC2CC2)c(O)n2ncc(/C=C/C(=O)N3CCC[C@H]3C(F)(F)F)c12` [compound 484, (S,E)-N-Cyclopropyl-7-hydroxy-4-isobutyl-5-oxo-3-(3-oxo-3-(2-(trifluoromethyl)pyrrolidine-1-yl)prop-1-en-1-yl)-4,5-dihydropyrazolo[1,5-a]pyrimidine-6-carboxamide]: 1200 pM.

The same test, now with this note: sepiapterin absorbance, Table 41, read-out: concentration at 50% inhibition of human SPR (IC50).
Consider `Cc1nn2c(O)c(C(=O)NC3CC3)c(=O)n(CC(C)C)c2c1/C=C/C(=O)N1CC[C@@H](C#N)C1` [Synthesis Example 689, (R,E)-3-(3-(3-Cyanopyrrolidin-1-yl)-3-oxoprop-1-en-1-yl)-N-cyclopropyl-7-hydroxy-4-isobutyl-2-methyl-5-oxo-4,5-dihydropyrazolo[1,5-a]pyrimidine-6-carboxamide], for which the IC50 came out at 950 pM.
